Assay results as given in patent publication US20260133182A1, “METHOD OF DETERMINING FUSOGENIC POTENTIAL OF SPERM AND USE THEREOF IN ASSISTED FERTILIZATION AND DRUG SCREENING” (Technion Research & Development Foundation Limited, priority 2023, published 2026).

Tested on: BHK cells expressing JUNO co-incubated with capacitated mouse sperm
Test: Sperm-to-BHK fusion and multinucleation
Format: cell-based, hamster
Details: JUNO-transfected BHK cells + mouse sperm
Protocol: In this study, the present inventors used BHK cells (Cat #CCL-10; ATCC, RRID: CVCL_1915) which were grown and maintained in DMEM containing 10% FBS. Cells were cultured at 37° C. in 5% CO2. Plasmids were transfected into cells using 2 μl jetPRIME (PolyPlus-transfection) per μg of DNA in 100 μl of reaction buffer for every ml of medium.
Sperm were recovered by incising the cauda epididymis, obtained from adult male mice, in 300 μl of mHTF medium (Kito et al. 2004) supplemented with 4 mg/ml of BSA. The sperm were diluted in fresh medium to a concentration of 5×10^6 cells/ml and incubated for 90 min at 37° C. and 5% CO2 to induce capacitation.
BHK cells were grown on 24-well glass bottom tissue-culture plates. 24 h after plating, cells were transfected with 0.25 μg pcDNA 3.1 -EGFP-MBD-nls plasmids and 0.5 μg of either pCI::H2B-RFP or pCI::JUNO::H2B-RFP. […] Multinucleation percentage was determined as the ratio between the number of nuclei in multinucleated cells (NuM) and the total number of nuclei fluorescent cells (NuF), as follows: % of multinucleation=(NuM/NuF)×100. 500 nuclei (NuF) were counted in each independent repetition (experimental point). In some cases, the number of sperm fused was determined by evaluating the transfer of EGFP-MBD-nls signal from the BHK cell to the sperm nuclei (number of fused sperm/500 BHK cells). […]

Row | SMILES | multinucleation (% of multinucleation) (20 μM FdUdr) | levels of multinucleation (% of multinucleation) (4 h, 200 μg/ml cycloheximide vs control)
1 | O=c1[nH]c(=O)n([C@H]2C[C@H](O)[C@@H](CO)O2)cc1F [FdUdr, 5-fluoro-2′-deoxyuridine] | does not inhibit | –
2 | C[C@@H]1C[C@@H]([C@H](O)CC2CC(=O)NC(=O)C2)C(=O)[C@@H](C)C1 [cycloheximide] | – | no differences
